What was measured:
Experiment in all cases: relative viability (nuclei count vs DMSO), 5 days (fraction); higher = more cells survive
LXF-289 = system: LXF-289
Method in brief: (§1)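 Medians of duplicate plates are given as relative viability. That measure is the nuclei count in treated wells divided by the count in vehicle wells. Counts were taken on 4× images of lung cancer cell lines in 1536-well plates, 5 days after pin-tool dosing the day after seeding with one drug alone or a fixed anchor-drug dose plus five library-drug doses (not always all listed) in √10 steps.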

ABC-1 = system: ABC-1
Method in brief: as §1

NCI-H1993 = system: NCI-H1993
Method in brief: as §1

HOP-62 = system: HOP-62
Method in brief: as §1

NCI-H522 = system: NCI-H522
Method in brief: as §1

LK-2 = system: LK-2
Method in brief: as §1

NCI-H322M = system: NCI-H322M
Method in brief: as §1

NCI-H1944 = system: NCI-H1944
Method in brief: as §1

EMC-BAC-2 = system: EMC-BAC-2
Method in brief: as §1

SW 900 = system: SW 900
Method in brief: as §1

NCI-H2009 = system: NCI-H2009
Method in brief: as §1

NCI-H2170 = system: NCI-H2170
Method in brief: as §1

SW 1573 = system: SW 1573
Method in brief: as §1

SK-MES-1 = system: SK-MES-1
Method in brief: as §1

PC-3 [JPC-3] = system: PC-3 [JPC-3]
Method in brief: as §1

HARA = system: HARA
Method in brief: as §1

A-427 = system: A-427
Method in brief: as §1

NCI-H727 = system: NCI-H727
Method in brief: as §1

NCI-H3122 = system: NCI-H3122
Method in brief: as §1

NCI-H596 = system: NCI-H596
Method in brief: as §1

NCI-H2228 = system: NCI-H2228
Method in brief: as §1

## CC(=O)O[C@@]12CO[C@@H]1C[C@H](O)[C@@]1(C)C(=O)[C@H](O)C3=C(C)[C@@H](OC(=O)[C@H](O)[C@@H](NC(=O)OC(C)(C)C)c4ccccc4)C[C@@](O)([C@@H](OC(=O)c4ccccc4)[C@H]21)C3(C)C [Docetaxel] + O=C(CCCCCCC(=O)Nc1ccccc1)NO [Vorinostat] (partner 1 µM)
LXF-289; first compound 0.0002 µM
  relative viability: 0.797
LXF-289; first compound 0.000632 µM
  relative viability: 0.392
LXF-289; first compound 0.002 µM
  relative viability: 0.168
LXF-289; first compound 0.006325 µM
  relative viability: 0.19
LXF-289; first compound 0.02 µM
  relative viability: 0.118
ABC-1; first compound 0.0002 µM
  relative viability: 1.13
ABC-1; first compound 0.000632 µM
  relative viability: 0.884
ABC-1; first compound 0.002 µM
  relative viability: 0.44
ABC-1; first compound 0.006325 µM
  relative viability: 0.435
ABC-1; first compound 0.02 µM
  relative viability: 0.338
NCI-H1993; first compound 0.0002 µM
  relative viability: 0.594
NCI-H1993; first compound 0.000632 µM
  relative viability: 0.499
NCI-H1993; first compound 0.002 µM
  relative viability: 0.376
NCI-H1993; first compound 0.006325 µM
  relative viability: 0.392
NCI-H1993; first compound 0.02 µM
  relative viability: 0.246
HOP-62; first compound 0.0002 µM
  relative viability: 0.522
HOP-62; first compound 0.000632 µM
  relative viability: 0.346
NCI-H522; first compound 0.0002 µM
  relative viability: 0.852
NCI-H522; first compound 0.000632 µM
  relative viability: 0.899
NCI-H522; first compound 0.002 µM
  relative viability: 0.713
NCI-H522; first compound 0.006325 µM
  relative viability: 0.516
NCI-H522; first compound 0.02 µM
  relative viability: 0.344
LK-2; first compound 0.0002 µM
  relative viability: 0.313
LK-2; first compound 0.000632 µM
  relative viability: 0.217
LK-2; first compound 0.002 µM
  relative viability: 0.15
LK-2; first compound 0.006325 µM
  relative viability: 0.183
LK-2; first compound 0.02 µM
  relative viability: 0.152
NCI-H322M; first compound 0.0002 µM
  relative viability: 0.801
NCI-H322M; first compound 0.000632 µM
  relative viability: 0.843
NCI-H322M; first compound 0.002 µM
  relative viability: 0.906
NCI-H322M; first compound 0.006325 µM
  relative viability: 0.711
NCI-H322M; first compound 0.02 µM
  relative viability: 0.481
NCI-H1944; first compound 0.0002 µM
  relative viability: 0.604
NCI-H1944; first compound 0.000632 µM
  relative viability: 0.538
NCI-H1944; first compound 0.002 µM
  relative viability: 0.423
NCI-H1944; first compound 0.006325 µM
  relative viability: 0.223
NCI-H1944; first compound 0.02 µM
  relative viability: 0.172
EMC-BAC-2; first compound 0.0002 µM
  relative viability: 0.388
EMC-BAC-2; first compound 0.000632 µM
  relative viability: 0.293
EMC-BAC-2; first compound 0.002 µM
  relative viability: 0.262
EMC-BAC-2; first compound 0.006325 µM
  relative viability: 0.224
EMC-BAC-2; first compound 0.02 µM
  relative viability: 0.171
SW 900; first compound 0.0002 µM
  relative viability: 0.523
SW 900; first compound 0.000632 µM
  relative viability: 0.284
SW 900; first compound 0.002 µM
  relative viability: 0.277
SW 900; first compound 0.006325 µM
  relative viability: 0.203
SW 900; first compound 0.02 µM
  relative viability: 0.235
NCI-H2009; first compound 0.0002 µM
  relative viability: 0.714
NCI-H2009; first compound 0.000632 µM
  relative viability: 0.715
NCI-H2009; first compound 0.002 µM
  relative viability: 0.707
NCI-H2009; first compound 0.006325 µM
  relative viability: 0.301
NCI-H2009; first compound 0.02 µM
  relative viability: 0.176
NCI-H2170; first compound 0.0002 µM
  relative viability: 0.787
NCI-H2170; first compound 0.000632 µM
  relative viability: 0.551
NCI-H2170; first compound 0.002 µM
  relative viability: 0.388
NCI-H2170; first compound 0.006325 µM
  relative viability: 0.162
NCI-H2170; first compound 0.02 µM
  relative viability: 0.136
SW 1573; first compound 0.0002 µM
  relative viability: 0.547
SW 1573; first compound 0.000632 µM
  relative viability: 0.305
SW 1573; first compound 0.002 µM
  relative viability: 0.228
SW 1573; first compound 0.006325 µM
  relative viability: 0.174
SW 1573; first compound 0.02 µM
  relative viability: 0.126
SK-MES-1; first compound 0.0002 µM
  relative viability: 1.15
SK-MES-1; first compound 0.000632 µM
  relative viability: 0.925
SK-MES-1; first compound 0.002 µM
  relative viability: 0.695
SK-MES-1; first compound 0.006325 µM
  relative viability: 0.267
SK-MES-1; first compound 0.02 µM
  relative viability: 0.212
PC-3 [JPC-3]; first compound 0.0002 µM
  relative viability: 0.673
PC-3 [JPC-3]; first compound 0.000632 µM
  relative viability: 0.58
PC-3 [JPC-3]; first compound 0.002 µM
  relative viability: 0.395
PC-3 [JPC-3]; first compound 0.006325 µM
  relative viability: 0.343
PC-3 [JPC-3]; first compound 0.02 µM
  relative viability: 0.21
HARA; first compound 0.0002 µM
  relative viability: 0.5
HARA; first compound 0.000632 µM
  relative viability: 0.219
HARA; first compound 0.002 µM
  relative viability: 0.148
HARA; first compound 0.006325 µM
  relative viability: 0.215
HARA; first compound 0.02 µM
  relative viability: 0.0839
A-427; first compound 0.0002 µM
  relative viability: 0.824
A-427; first compound 0.000632 µM
  relative viability: 0.822
A-427; first compound 0.002 µM
  relative viability: 0.621
A-427; first compound 0.006325 µM
  relative viability: 0.36
A-427; first compound 0.02 µM
  relative viability: 0.27
NCI-H727; first compound 0.0002 µM
  relative viability: 1.08
NCI-H727; first compound 0.000632 µM
  relative viability: 1.13
NCI-H727; first compound 0.002 µM
  relative viability: 1.2
NCI-H727; first compound 0.006325 µM
  relative viability: 0.748
NCI-H727; first compound 0.02 µM
  relative viability: 0.67
NCI-H3122; first compound 0.0002 µM
  relative viability: 0.909
NCI-H3122; first compound 0.000632 µM
  relative viability: 0.95
NCI-H3122; first compound 0.002 µM
  relative viability: 0.487
NCI-H3122; first compound 0.006325 µM
  relative viability: 0.22
NCI-H3122; first compound 0.02 µM
  relative viability: 0.126
NCI-H596; first compound 0.0002 µM
  relative viability: 0.639
NCI-H596; first compound 0.000632 µM
  relative viability: 0.46
NCI-H596; first compound 0.002 µM
  relative viability: 0.393
NCI-H596; first compound 0.006325 µM
  relative viability: 0.307
NCI-H596; first compound 0.02 µM
  relative viability: 0.144
NCI-H2228; first compound 0.0002 µM
  relative viability: 0.565
NCI-H2228; first compound 0.000632 µM
  relative viability: 0.145
NCI-H2228; first compound 0.002 µM
  relative viability: 0.168
NCI-H2228; first compound 0.006325 µM
  relative viability: 0.151
NCI-H2228; first compound 0.02 µM
  relative viability: 0.145

From the supplement of paper PMC10307832
